Measured values: paper PMC12280919, “Arylsulfamates inhibit colonic Bacteroidota growth through a sulfatase-independent mechanism” (Proceedings of the National Academy of Sciences of the …, 2025)
Structures can show the parent of a compound that is named as a salt.

Legend:
PaAstA [1] = target: T1, PaAstA (Pseudomonas aeruginosa, UniProt P51691); test: 4-nitrophenolate release, A400; format: biochemical; details: 1 mM substrate, pH 7.0, 5 mM CaCl2, 20-25 °C
T1 construct: gene atsA; S1_4 sulfatase

BT4322 = target: T2, BT4322 (Bacteroides thetaiotaomicron, UniProt Q89ZQ4); test: thermal shift assay (SYPRO Orange DSF); format: binding; details: pH 7.0, 100 mM BTP, 150 mM NaCl, 5% DMSO
T2 construct: gene BT_4322; recombinant in E. coli
T2 sequence (Q89ZQ4 1-308): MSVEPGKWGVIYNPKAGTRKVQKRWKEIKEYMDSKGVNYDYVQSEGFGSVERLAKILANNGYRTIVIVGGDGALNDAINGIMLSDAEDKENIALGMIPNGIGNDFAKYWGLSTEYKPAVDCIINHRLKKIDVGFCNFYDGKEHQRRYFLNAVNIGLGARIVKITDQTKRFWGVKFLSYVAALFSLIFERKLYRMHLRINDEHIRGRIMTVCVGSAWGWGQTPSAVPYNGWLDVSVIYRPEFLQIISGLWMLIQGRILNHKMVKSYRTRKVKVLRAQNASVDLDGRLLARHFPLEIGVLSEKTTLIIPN

PaAstA [2] = target: T1, PaAstA; test: 4-nitrophenyl sulfate hydrolysis, A400; also preincubation and jump dilution; format: biochemical; details: 1 mM compound, 1 mM 4-nitrophenyl sulfate, pH 7.0, 5 mM CaCl2, 20-25 °C; irreversible, covalent
BT1636^3S-Gal = target: T3, BT1636^3S-Gal (Bacteroides thetaiotaomicron, UniProt Q8A789, S77C); test: microfluidic mobility shift desulfation assay after overnight preincubation and dilution; format: biochemical; details: 1 mM compound, only after preincubation; BODIPY-labelled sulfated substrate, 5 mM CaCl2, 28 °C; formylglycine form
T3 construct: gene BT_1636; recombinant in E. coli TUNER, cobalt IMAC
T3 sequence (Q8A789 23-509 S77C): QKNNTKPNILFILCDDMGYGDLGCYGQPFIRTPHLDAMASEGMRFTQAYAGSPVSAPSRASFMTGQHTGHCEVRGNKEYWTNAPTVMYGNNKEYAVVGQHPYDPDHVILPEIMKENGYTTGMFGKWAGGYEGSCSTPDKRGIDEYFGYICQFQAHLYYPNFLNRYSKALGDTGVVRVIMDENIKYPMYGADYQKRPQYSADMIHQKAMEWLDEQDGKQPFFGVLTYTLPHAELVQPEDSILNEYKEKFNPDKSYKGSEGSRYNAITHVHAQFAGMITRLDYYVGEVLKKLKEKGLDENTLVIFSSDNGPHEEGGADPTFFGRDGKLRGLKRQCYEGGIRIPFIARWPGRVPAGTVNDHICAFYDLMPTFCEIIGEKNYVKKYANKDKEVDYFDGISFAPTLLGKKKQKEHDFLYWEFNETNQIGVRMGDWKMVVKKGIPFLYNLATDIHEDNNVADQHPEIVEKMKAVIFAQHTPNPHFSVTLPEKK

T1 sequence (P51691 2-536): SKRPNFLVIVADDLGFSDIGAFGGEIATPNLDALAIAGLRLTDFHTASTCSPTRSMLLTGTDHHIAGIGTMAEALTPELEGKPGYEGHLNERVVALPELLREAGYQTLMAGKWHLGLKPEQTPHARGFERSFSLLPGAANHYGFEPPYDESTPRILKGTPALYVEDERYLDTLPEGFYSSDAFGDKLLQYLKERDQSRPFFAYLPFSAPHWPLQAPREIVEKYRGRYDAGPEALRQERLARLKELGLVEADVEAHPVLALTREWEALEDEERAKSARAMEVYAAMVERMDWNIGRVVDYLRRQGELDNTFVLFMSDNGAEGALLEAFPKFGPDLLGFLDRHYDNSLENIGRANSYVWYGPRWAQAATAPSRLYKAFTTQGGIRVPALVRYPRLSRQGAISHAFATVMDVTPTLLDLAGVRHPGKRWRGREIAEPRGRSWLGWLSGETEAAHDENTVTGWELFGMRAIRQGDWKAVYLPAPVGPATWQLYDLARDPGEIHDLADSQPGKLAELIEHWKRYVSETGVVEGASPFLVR

`O=[N+]([O-])c1ccc(OS(=O)(=O)O)cc1` [4-nitrophenyl sulfate] was tested, and the “4-nitrophenolate release, A400” value (PaAstA [1]) was “rapidly hydrolyzed by the family S1 steroid sulfatase PaAsta”.
In the case of `Nc1ncnc2c1ncn2[C@@H]1O[C@H](COP(=O)(O)OP(=O)(O)OP(=O)(O)O)[C@@H](O)[C@H]1O` [ATP], the dTm (BT4322; stabilizing) is reported as “The substrate ATP also stabilized BT4322”.
With `NS(=O)(=O)Oc1ccc(-c2ccccc2)cc1` [compound 2, 4-phenylphenyl sulfamate] the “% inhibition at 1 mM” value (PaAstA [2]) was “all arylsulfamates were broadly equivalent in their ability to completely inhibit both enzymes”.
`COc1cc2ccccc2cc1OS(N)(=O)=O` [compound 17, arylsulfamate 17] was tested, and the “% inhibition at 1 mM” value (PaAstA [2]) was “all arylsulfamates were broadly equivalent in their ability to completely inhibit both enzymes”.
In the case of `O=S(=O)(F)c1ccccc1` [compound 23, aryl sulfonylfluoride 23], the “% inhibition at 1 mM” value (BT1636^3S-Gal) is reported as > 50%.
For `O=c1c2ccccc2[nH]c(=S)n1CCN1CCC(=C(c2ccc(F)cc2)c2ccc(F)cc2)CC1` [diacylglycerol kinase inhibitor II], the dTm (BT4322; stabilizing) was “DAGK-II caused a concentration-dependent stabilization”.
In the case of `Cc1nc2sccn2c(=O)c1CCN1CCC(=C(c2ccccc2)c2ccc(F)cc2)CC1` [diacylglycerol kinase inhibitor I], the dTm (BT4322; destabilizing) is reported as “The DAGK-I inhibitor also caused concentration-dependent destabilization”.
